US20250163054A1, “SUBSTITUTED BICYCLIC HETEROARYL COMPOUNDS USEFUL AS INHIBITORS OF TLR9” (Bristol-Myers Squibb Company, priority 2022, published 2025)

Columns and labels:
Format in all cases: cell-based
human TLR9 = biological target: T1, human TLR9 (Homo sapiens, UniProt Q9NR96); assay: TLR7/8/9 Inhibition Reporter Assays (TLR9); settings: HEK-Blue cells overexpressing human TLR9, SEAP reporter, stimulated with TLR9 ligand ODN2006
T1 construct: host or cells: HEK-Blue cells (HEK293-derived reporter line)
T1 sequence (Q9NR96 26-1032): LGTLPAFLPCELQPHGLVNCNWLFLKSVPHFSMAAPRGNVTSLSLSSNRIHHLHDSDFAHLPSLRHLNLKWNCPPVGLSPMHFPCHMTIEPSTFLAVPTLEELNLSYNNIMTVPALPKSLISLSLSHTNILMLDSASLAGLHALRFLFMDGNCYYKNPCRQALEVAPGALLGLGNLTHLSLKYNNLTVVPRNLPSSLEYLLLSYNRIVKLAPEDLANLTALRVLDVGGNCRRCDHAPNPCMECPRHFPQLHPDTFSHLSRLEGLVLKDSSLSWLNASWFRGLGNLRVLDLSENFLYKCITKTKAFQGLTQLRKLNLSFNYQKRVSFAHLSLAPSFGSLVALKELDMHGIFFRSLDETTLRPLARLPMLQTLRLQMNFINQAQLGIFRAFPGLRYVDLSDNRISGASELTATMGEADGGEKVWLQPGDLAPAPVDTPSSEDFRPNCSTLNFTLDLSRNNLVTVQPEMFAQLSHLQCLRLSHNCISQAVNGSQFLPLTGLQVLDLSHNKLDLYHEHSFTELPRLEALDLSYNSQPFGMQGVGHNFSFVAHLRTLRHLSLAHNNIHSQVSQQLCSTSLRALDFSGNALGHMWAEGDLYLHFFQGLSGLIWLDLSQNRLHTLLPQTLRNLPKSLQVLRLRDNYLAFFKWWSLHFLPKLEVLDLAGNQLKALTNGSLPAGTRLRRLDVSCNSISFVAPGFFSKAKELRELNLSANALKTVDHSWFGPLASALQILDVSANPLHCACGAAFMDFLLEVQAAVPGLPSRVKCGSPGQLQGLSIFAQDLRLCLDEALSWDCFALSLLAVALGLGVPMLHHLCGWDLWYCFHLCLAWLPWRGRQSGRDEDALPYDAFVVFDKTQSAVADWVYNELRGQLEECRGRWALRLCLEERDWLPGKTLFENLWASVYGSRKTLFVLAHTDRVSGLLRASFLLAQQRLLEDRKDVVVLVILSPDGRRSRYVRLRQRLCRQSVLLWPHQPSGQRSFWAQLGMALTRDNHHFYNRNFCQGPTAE
How it was run: (§1)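 HEK-Blue cells overexpressing human TLR7, TLR8 or TLR9 with NF-κB/AP-1-driven SEAP reporter, pre-treated 60 min with compound ([…]). Stimulated with […] (TLR7), […] (TLR8) or ODN2006 200 nM (TLR9), then 22 h at 37° C; SEAP measured, % inhibition relative to agonist-plus-DMSO and known-inhibitor wells.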

human TLR8 = biological target: T2, human TLR8 (Homo sapiens, UniProt Q9NR97); assay: TLR7/8/9 Inhibition Reporter Assays (TLR8); settings: HEK-Blue cells overexpressing human TLR8, SEAP reporter, stimulated with TLR8 ligand R848
T2 construct: host or cells: HEK-Blue cells (HEK293-derived reporter line)
T2 sequence (Q9NR97 27-1041): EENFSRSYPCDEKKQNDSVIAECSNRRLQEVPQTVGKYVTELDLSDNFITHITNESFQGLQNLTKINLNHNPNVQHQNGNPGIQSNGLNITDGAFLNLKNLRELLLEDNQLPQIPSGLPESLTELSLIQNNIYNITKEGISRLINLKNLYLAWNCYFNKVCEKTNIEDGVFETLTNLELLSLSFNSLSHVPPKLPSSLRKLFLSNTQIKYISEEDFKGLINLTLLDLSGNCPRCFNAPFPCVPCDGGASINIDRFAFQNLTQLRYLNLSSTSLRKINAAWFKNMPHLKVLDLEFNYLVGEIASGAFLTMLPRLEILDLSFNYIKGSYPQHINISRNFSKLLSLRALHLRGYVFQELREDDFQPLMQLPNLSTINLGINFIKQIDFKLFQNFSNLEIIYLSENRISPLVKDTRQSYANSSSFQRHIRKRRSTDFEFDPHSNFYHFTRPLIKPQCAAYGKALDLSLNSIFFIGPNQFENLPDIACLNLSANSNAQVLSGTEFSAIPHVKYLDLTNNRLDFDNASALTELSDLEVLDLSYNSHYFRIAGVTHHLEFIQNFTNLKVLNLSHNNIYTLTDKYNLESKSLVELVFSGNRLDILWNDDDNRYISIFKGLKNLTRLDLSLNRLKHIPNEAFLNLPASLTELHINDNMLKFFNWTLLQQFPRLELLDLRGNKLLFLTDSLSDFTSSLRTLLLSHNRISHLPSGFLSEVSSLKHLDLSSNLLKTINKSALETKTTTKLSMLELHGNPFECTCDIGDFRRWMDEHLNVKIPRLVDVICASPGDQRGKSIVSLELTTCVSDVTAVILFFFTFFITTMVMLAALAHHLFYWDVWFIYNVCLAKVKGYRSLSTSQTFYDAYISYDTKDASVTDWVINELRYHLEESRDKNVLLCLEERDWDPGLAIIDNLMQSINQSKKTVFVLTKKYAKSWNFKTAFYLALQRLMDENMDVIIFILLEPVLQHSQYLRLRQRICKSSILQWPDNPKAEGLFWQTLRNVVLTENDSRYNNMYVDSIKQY
How it was run: as §1

human TLR7 = biological target: T3, human TLR7 (Homo sapiens, UniProt Q9NYK1); assay: TLR7/8/9 Inhibition Reporter Assays (TLR7); settings: HEK-Blue cells overexpressing human TLR7, SEAP reporter, stimulated with TLR7 ligand gardiquimod
T3 construct: host or cells: HEK-Blue cells (HEK293-derived reporter line)
T3 sequence (Q9NYK1 27-1049): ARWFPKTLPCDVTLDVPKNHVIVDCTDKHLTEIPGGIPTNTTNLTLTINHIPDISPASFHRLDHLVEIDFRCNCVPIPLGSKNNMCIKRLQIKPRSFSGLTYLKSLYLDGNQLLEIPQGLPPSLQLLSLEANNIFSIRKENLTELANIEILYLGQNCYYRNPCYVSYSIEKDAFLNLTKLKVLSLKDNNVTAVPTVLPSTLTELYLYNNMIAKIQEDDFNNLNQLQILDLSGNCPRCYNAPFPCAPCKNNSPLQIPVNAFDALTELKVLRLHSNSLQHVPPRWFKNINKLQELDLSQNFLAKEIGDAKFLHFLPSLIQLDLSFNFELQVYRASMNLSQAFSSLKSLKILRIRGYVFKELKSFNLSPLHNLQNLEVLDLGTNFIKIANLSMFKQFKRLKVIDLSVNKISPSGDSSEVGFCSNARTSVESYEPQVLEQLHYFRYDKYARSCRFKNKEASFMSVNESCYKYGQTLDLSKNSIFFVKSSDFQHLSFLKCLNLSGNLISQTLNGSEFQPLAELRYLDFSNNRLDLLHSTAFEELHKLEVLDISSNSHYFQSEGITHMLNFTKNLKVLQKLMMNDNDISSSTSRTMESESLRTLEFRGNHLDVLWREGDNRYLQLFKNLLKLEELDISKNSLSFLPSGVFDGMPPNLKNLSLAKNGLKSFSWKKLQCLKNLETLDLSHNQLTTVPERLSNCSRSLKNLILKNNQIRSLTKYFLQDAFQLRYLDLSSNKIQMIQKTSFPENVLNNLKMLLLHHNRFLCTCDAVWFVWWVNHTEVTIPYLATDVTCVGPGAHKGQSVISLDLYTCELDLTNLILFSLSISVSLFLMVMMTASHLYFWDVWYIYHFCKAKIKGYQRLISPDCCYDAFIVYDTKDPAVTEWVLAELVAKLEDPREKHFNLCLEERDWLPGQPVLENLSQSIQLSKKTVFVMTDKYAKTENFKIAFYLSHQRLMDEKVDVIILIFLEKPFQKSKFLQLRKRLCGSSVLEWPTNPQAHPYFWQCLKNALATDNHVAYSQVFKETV
How it was run: as §1

Row | Compound | IC50 (human TLR9) [nM] | IC50 (human TLR8) [nM] | IC50 (human TLR7) [nM]
1 | COc1ccc(-c2nc3c(C)nc(-c4ccc(N5CC6(CN(CC(C)C)C6)C5)cc4)cc3n2C)cc1OC [Example 71, 2-(3,4-dimethoxyphenyl)-6-(4-(6-isobutyl-2,6-diazaspiro[3.3]heptan-2-yl)phenyl)-1,4-dimethyl-1H-imidazo[4,5-c]pyridine] | 130 | 17000 | 1000
2 | Cc1cc(-c2nc3c(C)nc(-c4ccc(N5CCN(CC(C)C)CC5)cc4)cc3n2C)cc(C)n1 [Example 14, 2-(2,6-dimethylpyridin-4-yl)-6-(4-(4-isobutylpiperazin-1-yl)phenyl)-1,4-dimethyl-1H-imidazo[4,5-c]pyridine] | 380 | 4600 | 4500
3 | Cc1nc(-c2ccc(N3CCN(C(C)C)CC3)cc2)cc2c1nc(-c1ccc(S(C)(=O)=O)cc1)n2C [Example 6, 6-(4-(4-isopropylpiperazin-1-yl)phenyl)-1,4-dimethyl-2-(4-(methylsulfonyl)phenyl)-1H-imidazo[4,5-c]pyridine] | 800 | 3000 | 3100
4 | Cc1nc(-c2ccc(N3CCC(N(C)C)CC3)cc2)cc2c1nc(-c1ccc(S(C)(=O)=O)cc1)n2C [Example 4, 1-(4-(1,4-dimethyl-2-(4-(methylsulfonyl)phenyl)-1H-imidazo[4,5-c]pyridin-6-yl)phenyl)-N,N-dimethylpiperidin-4-amine] | 120 | 9200 | 1300
5 | CC(C)CN1CC2(CCN(c3ccc(-c4cc5c(cn4)nc(-c4ccc(S(C)(=O)=O)cc4)n5C)cc3)CC2)C1 [Example 96, 6-(4-(2-isobutyl-2,7-diazaspiro[3.5]nonan-7-yl)phenyl)-1-methyl-2-(4-(methylsulfonyl)phenyl)-1H-imidazo[4,5-c]pyridine] | 240 | 990 | 3000
6 | COc1cc(-c2nc3c(C)nc(-c4ccc(N5CCN(CC6CC6)CC5)cc4)cc3n2C)cn2ncnc12 [Example 11, 6-(6-(4-(4-(cyclopropylmethyl)piperazin-1-yl)phenyl)-1,4-dimethyl-1H-imidazo[4,5-c]pyridin-2-yl)-8-methoxy-[1,2,4]triazolo[1,5-a]pyridine] | 420 | > 50000 | 1100
7 | CC(C)N1CCN(c2ccc(-c3cc4c(cn3)nc(-c3ccc(S(C)(=O)=O)cc3)n4C)cc2)CC1 [Example 70, 6-(4-(4-isopropylpiperazin-1-yl)phenyl)-1-methyl-2-(4-(methylsulfonyl)phenyl)-1H-imidazo[4,5-c]pyridine] | 230 | 440 | 5300
8 | COc1cc(-c2nc3c(C)nc(-c4ccc(N5CCN(C6CCC6)CC5)cc4)cc3n2C)cn2ncnc12 [Example 12, 6-(6-(4-(4-cyclobutylpiperazin-1-yl)phenyl)-1,4-dimethyl-1H-imidazo[4,5-c]pyridin-2-yl)-8-methoxy-[1,2,4]triazolo[1,5-a]pyridine] | 630 | > 50000 | 1500

Now those with a lower IC50 (human TLR9), led by results:

Row | IC50 (human TLR9) [nM] | IC50 (human TLR8) [nM] | IC50 (human TLR7) [nM] | Compound
9 | 89 | > 50000 | 1300 | COc1ccc(-c2nc3c(C)nc(-c4ccc(N5CC6(CN(CC(C)(C)O)C6)C5)cc4)cc3n2C)cc1OC [Example 58, 1-(6-(4-(2-(3,4-dimethoxyphenyl)-1,4-dimethyl-1H-imidazo[4,5-c]pyridin-6-yl)phenyl)-2,6-diazaspiro[3.3]heptan-2-yl)-2-methylpropan-2-ol]
10 | 78 | 6800 | 6200 | Cc1nc(-c2ccc(N3CC4(CN(CC(C)(C)O)C4)C3)cc2)cc2c1nc(-c1ccc(S(C)(=O)=O)cc1)n2C [Example 97, 1-(6-(4-(1,4-dimethyl-2-(4-(methylsulfonyl)phenyl)-1H-imidazo[4,5-c]pyridin-6-yl)phenyl)-2,6-diazaspiro[3.3]heptan-2-yl)-2-methylpropan-2-ol]
11 | 23 | 3600 | 1800 | COc1ccc(-c2nc3c(C)nc(-c4ccc(N5CC6(C5)CN(C(C)C)C6)cc4)cc3n2C)cc1OC [Example 76, 2-(3,4-dimethoxyphenyl)-6-(4-(6-isopropyl-2,6-diazaspiro[3.3]heptan-2-yl)phenyl)-1,4-dimethyl-1H-imidazo[4,5-c]pyridine]
12 | 13 | 6900 | 870 | COc1ccc(-c2nc3c(C)nc(-c4ccc(N5CC6(C5)CN(C5CCC5)C6)cc4)cc3n2C)cc1OC [Example 77, 6-(4-(6-cyclobutyl-2,6-diazaspiro[3.3]heptan-2-yl)phenyl)-2-(3,4-dimethoxyphenyl)-1,4-dimethyl-1H-imidazo[4,5-c]pyridine]
13 | 24 | 21000 | 1700 | COc1ccc(-c2nc3c(C)nc(-c4ccc(N5C[C@@H]6CN(C(C)C)C[C@@H]6C5)cc4)cc3n2C)cc1OC [Example 59, 2-(3,4-dimethoxyphenyl)-6-(4-((3aR,6aS)-5-isopropylhexahydropyrrolo[3,4-c]pyrrol-2(1H)-yl)phenyl)-1,4-dimethyl-1H-imidazo[4,5-c]pyridine]
